Measured values published in patent publication US8158586B2, “Inhibitors of protein kinases and uses thereof” (priority 2005, dated 2012).
Values joined by “and” are separate entries in the source; they are usually repeats but may differ in a detail not shown here. Identical values can stand only once. Marks after values point to notes of the source that are not given here. Positions of bridges follow the written chain, without caps; N, C: chain ends. Non-standard residues stand in square brackets, D forms with d. Residues, ends and D or L forms follow the SMILES beside them. Chains are numbered I, II in the order given. *: point of attachment. PNA(A) = NCCN(CC(=O)*)C(=O)Cn1cnc2c(N)ncnc21; Adenin9ylacetyl = Nc1ncnc2c1ncn2CC(=O)*; N(CH2CH2NHAc)Gly = CC(=O)NCCNCC(=O)O

How the values were obtained:
LS180 colon cancer cells = assay: Rhodamine influx and efflux in LS180 colon cancer cells; format: cell-based; conditions: doxorubicin exposed controls
Method: (§1) The amount of rhodamine influx and efflux following treatment of LS180 colon cancer cells and H-661 NSCLC cells with the PKI compounds was also investigated. The measurement of rhodamine efflux and influx is a common procedure that provides a quantitative estimation of the level of multidrug resistance due to typical MDR and non-P-gp MDR. Both exogenous treatment using 5 μg/mL of the PKI compounds provided at the same time as doxorubicin, and endogenous incorporation, in which a single dose of 5 mM was used with the standard pinocytic endocytosis protocol, were investigated.
(§2) The MDR-1 pump functions only as an efflux pump, however, it modulates the cell entry of rhodamine (that can diffuse through the membrane). Upon toxicant exposure, rhodamine accumulates in the cells. Ratios of rhodamine fluorescence in doxorubicin exposed versus untreated controls (CT) are lower if the pump is inhibited.

[1] = system: Pgp expression in LS180 colon cancer cells; assay: Pgp expression in LS180 colon cancer cells, flow cytometry; format: cell-based; conditions: LS180 control cell population exposed to doxorubicin for 72 h
Method: (§3) The protocol used for fixing the cells for flow cytometry is as follows. A minimum of 1.0×10^6 cells was used in each instance. Cells were trypsinized and spun down at 1,000/5 min at 4° C. All the medium was removed and the cells resuspended in 500 μl of 1×PBS, pH 7.1. The cell suspension was added into 5 mls of 1% paraformaldehyde/PBS on ice and fixed for 15 min on ice. Cells were then centrifuged at 1,000/5 min and resuspended in 10 mls of 1×PBS. Cells were centrifuged again at 1,000/5 min and resuspended in 2 mls of 70% ETOH and kept at −20° C. until needed (up to 1 week). At which time, 2 mls of 1×PBS containing 1% BSA/0.02% NaN3 was added to each tube and the cells were left on ice for 5 min to give the cells time to rehydrate. Cells were then centrifuged at 1,000/5 min and the ETOH/PBS mix removed. […]
(§4) In view of the key role of the Pgp170 and MRP-1 proteins in MDR, the effect of the PKI compounds on expression of these proteins in LS180 colon cancer cells and H-661 NSCLC cells was investigated. […] The number of cells individually analysed amounted to approximately 50,000 with a statistical error of about 0.08%.
(§5) The increase in the expression of P-gp and MRP-1 was assessed by comparing the % of cells expressing the protein in question in the presence and absence of doxorubicin (i.e. the ratio A/B in the Tables).

[2] = system: MRP-1 expression in H-661 NSCLC cells; assay: MRP-1 expression in H-661 NSCLC cells, flow cytometry; format: cell-based; conditions: H-661 control cell population exposed to doxorubicin for 72 h
Method: as §3, §4, §5

[3] = system: Pgp expression in H-661 NSCLC cells; assay: Pgp expression in H-661 NSCLC cells, flow cytometry; format: cell-based; conditions: H-661 control cell population exposed to doxorubicin for 72 h
Method: as §3, §4, §5

[4] = system: PKCα expression in LS180 colon cancer cells; assay: Expression of PKCα in LS180 cells, flow cytometry; format: cell-based; conditions: LS180 control cells exposed to doxorubicin for 72 h
Method: (§6) The effect of compounds 1 to 10 on doxorubicin-induced expression of PKCα in LS180 colon cancer cells and H-661 NSCLC cells was investigated. Cells were exposed to doxorubicin (50 ng/mL) for 3 days prior to exogenous treatment with the PKI compounds at a concentration of 5 μM. Results were acquired by flow cytometry after labelling of the cells with the PKC-alpha #sc 208 antibody.
as §3, with “removed. The cells were resuspended in 5 mls of 1×PBS and allowed to sit on ice for 5 min.” for “removed.”

[5] = system: PKCα expression in H-661 NSCLC cells; assay: Expression of PKCα in H-661 cells, flow cytometry; format: cell-based; conditions: H-661 control cells exposed to doxorubicin for 72 h
Method: as §6
as §3, with “removed. The cells were resuspended in 5 mls of 1×PBS and allowed to sit on ice for 5 min.” for “removed.”

H-661 NSCLC cells = assay: Rhodamine influx and efflux in H-661 NSCLC cells; format: cell-based; conditions: control cells exposed to doxorubicin
Method: as §1, §2

[6] = system: MRP-1 expression in LS180 colon cancer cells; assay: MRP-1 expression in LS180 colon cancer cells, flow cytometry; format: cell-based; conditions: LS180 control cell population exposed to doxorubicin for 72 h
Method: as §3, §4, §5

Akt/PKB = Akt/PKB (Homo sapiens, UniProt P31749); assay: Luminescence Kinase Glo assay, Akt/PKB; format: biochemical; conditions: 150000.0
Chain of Akt/PKB (P31749 whole entry): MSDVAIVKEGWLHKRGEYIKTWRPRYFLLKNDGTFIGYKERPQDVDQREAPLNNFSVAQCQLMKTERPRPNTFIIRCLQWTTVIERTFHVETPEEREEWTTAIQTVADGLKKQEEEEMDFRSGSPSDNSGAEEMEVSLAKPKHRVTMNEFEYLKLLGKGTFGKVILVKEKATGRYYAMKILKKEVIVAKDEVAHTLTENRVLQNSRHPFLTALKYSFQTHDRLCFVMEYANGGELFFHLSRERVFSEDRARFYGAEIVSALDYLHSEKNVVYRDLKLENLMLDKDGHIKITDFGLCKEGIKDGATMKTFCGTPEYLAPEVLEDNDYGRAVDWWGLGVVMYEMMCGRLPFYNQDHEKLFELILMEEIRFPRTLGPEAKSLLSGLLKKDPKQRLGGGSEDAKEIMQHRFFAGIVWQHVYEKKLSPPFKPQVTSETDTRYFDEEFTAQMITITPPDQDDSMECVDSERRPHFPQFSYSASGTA
Method: The ability of the PKI compounds to inhibit PKA, CDK2, Akt/PKB, MAPKp38 and CK2a2 protein kinases was assessed using the Luminescence Kinase Glo® Kit (Promega V6711) according to the manufacturer's instructions. In brief the protocol was as follows:
All kinases were prepared in their respective 1× buffers. 20 μL of […] reaction buffer was added to each well. 10 μL of PKI compound and 10 μL of the test kinase solution were added followed by 10 μL of the Reaction Solution (containing activators, ATP and substrate). The reactions were incubated at 30° C. for 30 min and then 50 μL of Kinase-Glo® was added. Luminescence was measured after 10-15 min on a Galaxy reader.

COc1cccc2c1C(=O)c1c(O)c3c(c(O)c1C2=O)C[C@@](O)(C(=O)CO)C[C@@H]3O[C@H]1C[C@H](N)[C@H](O)[C@H](C)O1 [doxorubicin]
rhodamine accumulation (LS180 colon cancer cells): 1.58 times and 1.43 times and 1.37 times
increase in number of P-gp labelled cells, average [1]: 2.38 times
increase in number of MRP-1 labelled cells, average [2]: 12.05 times
increase in number of P-gp labelled cells, average [3]: 15.0 times
increase in log fluorescence relative intensity (PKCα), average [4]: 1.99 times
increase in log fluorescence relative intensity (PKCα), average [5]: 2.19 times
increase in rhodamine retention (H-661 NSCLC cells): ~2.00 times
increase in number of MRP-1 labelled cells, average [6]: 3.41 times

CC(=O)N[C@@H](CCCCN)C(=O)N[C@@H](CC(C)C)C(=O)N[C@@H](CCCNC(=N)N)C(=O)N[C@@H](CCCNC(=N)N)C(=O)N[C@@H](C)C(=O)N[C@@H](CCCCNC(=O)CN(CCN)C(=O)Cn1cnc2c(N)ncnc21)C(=O)N[C@@H](CC(C)C)C(=O)NCC(=O)N[C@@H](CC(C)C)C(=O)NCC(=O)N[C@@H](CC(=O)O)C(=O)N[C@@H](CC(=O)O)C(N)=O [Compound 8] (Ac-KLRRAK(PNA(A))LGLGDD-NH2)
% Inhibition Akt/PKB (Akt/PKB): 0%

CC(=O)N[C@@H](CCCCN)C(=O)N[C@@H](Cc1ccccc1)C(=O)N[C@@H](CCCNC(=N)N)C(=O)N[C@@H](CCCNC(=N)N)C(=O)N[C@@H](CCCCNC(=O)CN(CCN)C(=O)Cn1cnc2c(N)ncnc21)C(=O)N[C@@H](CC(C)C)C(=O)N[C@@H](CCCNC(=N)N)C(=O)N[C@@H](CC(C)C)C(=O)N[C@@H](CCC(=O)O)C(=O)N[C@H](C(=O)N[C@@H](CC(=O)O)C(N)=O)C(C)C [Compound 6] (Ac-KFRRK(PNA(A))LRLEVD-NH2)
% Inhibition Akt/PKB (Akt/PKB): −10* %

CC(=O)N[C@@H](CCCCN)C(=O)N[C@@H](CC(C)C)C(=O)N[C@@H](CCCNC(=N)N)C(=O)N[C@@H](CCCNC(=N)N)C(=O)N[C@@H](C)C(=O)N[C@@H](CCCCNC(=O)CN(CCN)C(=O)Cn1cnc2c(N)ncnc21)C(=O)N[C@@H](CCCNC(=N)N)C(=O)N[C@@H](Cc1ccccc1)C(=O)N[C@@H](CC(C)C)C(=O)N[C@@H](CCC(=O)O)C(=O)N[C@H](C(=O)N[C@@H](CC(=O)O)C(N)=O)C(C)C [Compound 7] (Ac-KLRRAK(PNA(A))RFLEVD-NH2)
% Inhibition Akt/PKB (Akt/PKB): −7* %

CC(=O)N[C@@H](CCCCN)C(=O)N[C@@H](CC(C)C)C(=O)N[C@@H](CCCCN)C(=O)N[C@@H](CCCCN)C(=O)N[C@@H](C)C(=O)N[C@@H](CCCCNC(=O)CN(CCN)C(=O)Cn1cnc2c(N)ncnc21)C(=O)N[C@@H](CC(C)C)C(=O)NCC(=O)N[C@@H](CC(C)C)C(N)=O [Compound 9] (Ac-KLKKAK(PNA(A))LGL-NH2; N-terminus and C-terminus assumed)
% Inhibition Akt/PKB (Akt/PKB): 7%

CC(=O)NCCN(CC(=O)NCC(=O)N[C@@H](CS)C(=O)N[C@@H](CCCCN)C(=O)NCC(=O)N[C@@H](CCCCN)C(=O)N[C@@H](Cc1ccccc1)C(=O)N[C@@H](CCCCN)C(=O)N[C@@H](CCCNC(=N)N)C(N)=O)C(=O)Cn1cnc2c(N)ncnc21 [Compound 10] (Adenin9ylacetyl-[N(CH2CH2NHAc)Gly]GCKGKFKR-NH2; N-terminus and C-terminus assumed)
% Inhibition Akt/PKB (Akt/PKB): 21%

CC[C@H](C)[C@H](NC(=O)[C@H](CSSC[C@H](NC(=O)CNC(=O)CN(CCNC(C)=O)C(=O)Cn1cnc2c(N)ncnc21)C(=O)N[C@@H](CCCCN)C(=O)NCC(=O)N[C@@H](CCCCN)C(=O)N[C@@H](Cc1ccccc1)C(=O)N[C@@H](CCCCN)C(=O)N[C@@H](CCCNC(=N)N)C(N)=O)NC(=O)[C@H](Cc1c[nH]cn1)NC(C)=O)C(=O)NCC(=O)N[C@@H](CCCNC(=N)N)C(=O)N[C@@H](Cc1ccccc1)C(=O)N[C@@H](CCCCN)C(N)=O [Compound 1] (I: Adenin9ylacetyl-[N(CH2CH2NHAc)Gly]GCKGKFKR-NH2 / II: Ac-HCIGRFK-NH2; disulfide I:3-II:2; N-terminus and C-terminus assumed)
% Inhibition Akt/PKB (Akt/PKB): −31* %

CC(=O)N[C@@H](CCCCN)C(=O)N[C@@H](Cc1ccccc1)C(=O)N[C@@H](CCCNC(=N)N)C(=O)N[C@@H](CCCNC(=N)N)C(=O)N[C@@H](CCCCNC(=O)CN(CCN)C(=O)Cn1cnc2c(N)ncnc21)C(=O)N[C@@H](CCCNC(=N)N)C(=O)NCC(=O)N[C@@H](CCCNC(=N)N)C(=O)N[C@@H](CCC(=O)O)C(=O)N[C@H](C(=O)N[C@@H](CC(=O)O)C(N)=O)C(C)C [Compound 5] (Ac-KFRRK(PNA(A))RGREVD-NH2)
% Inhibition Akt/PKB (Akt/PKB): −6* %
